Literature values, collected in patent US10441593B2, “Treatment of pain associated with dislocation of endometrium” (PREGLEM S.A., priority 2010, dated 2019).

Tests used:
endometriosis = details: cited from earlier work
liver enzyme = details: clinical development program; 12.5 mg, 25 mg and 50 mg; cited from earlier work

## COCC(=O)[C@@]1(OC(C)=O)CC[C@H]2[C@@H]3CCC4=CC(=O)CCC4=C3[C@@H](c3ccc(N(C)C)cc3)C[C@@]21C [Proellex]
endometriosis; 50 mg group, end of the first months of therapy
  days of pain compared with baseline: statistically significant reduction in days of pain
endometriosis; 6 month study
  dose response in treatment of endometriosis: clearly support a dose response
Liver enzyme
  liver enzyme (sign of liver toxicity, DILI): dose related increase in liver enzyme
